Reference: patent US20080138838A1, “DIAGNOSIS OF ZD1839 RESISTANT TUMORS” (CEDARS-SINAI MEDICAL CENTER, priority 2002, published 2008)

System: androgen-independent human cell line CWR22R grown as a xenograft
Test: ZD1839 resistant xenograft model of human prostate cancer
Type: in vivo
Protocol: The androgen-independent human cell line CWR22R was grown as a xenograft in nude mice. See Nagabhushan, et al. (1996) Cancer Res. 56:3042-3046; Agus, et al. (1999) J. Nat'l Cancer Inst. 91:1869-1876; and Bubendorf, et al. (1999) J. Nat'l Cancer Inst. 91:1758-1764. […] The mice were treated continuously with sub-therapeutic doses, and the tumors were allowed to grow for 3-4 weeks, before surgical removal of the tumors. The tumor from an individual mouse was then minced, and a small portion was then injected into a healthy nude mouse, establishing a second passage of the tumor. This mouse was then treated continuously with the same sub-therapeutic dose of ZD1839. This process was repeated 10 times, and a portion of each generation of xenograft tumor was collected. […] RNA from each generation of tumor was then isolated, and individual mRNA species were quantified using a custom Affymetrix GENECHIP® (DNA microarray chip) oligonucleotide microarray (Eos Hu03), with probes to interrogate approximately 46,000 unique mRNA transcripts. […] The gene products of the genes listed in Tables 1A-C may be particularly useful as targets in the treatment of ZD1839 resistant tumors derived from prostate cancer, small cell lung cancer, breast cancer, glioblastoma, cervical cancer, colon cancer, head and neck cancer, renal cell carcinoma, and pancreatic cancer. Prostate cancer includes epithelial neoplasms (e.g., adenocarcinoma, small cell tumors, transitional cell carcinoma, carcinoma in situ, and basal cell carcinoma), carcinosarcoma, non-epithelial neoplasms (e.g., mesenchymal and lymphoma), germ cell tumors, prostatic intraepithelial neoplasia (PIN), hormone independent prostate cancer, and metastatic prostate cancer (e.g., to bone, lung, or lymph node).

COc1cc2ncnc(Nc3ccc(F)c(Cl)c3)c2cc1OCCCN1CCOCC1 [ZD1839]
response of xenograft tumors to therapeutic doses of ZD1839 (end of the process (passaging repeated 10 times under continuous sub-therapeutic doses, nude mice)): fully resistant to therapeutic doses
response of xenograft tumors to therapeutic doses of ZD1839 (initially (parental CWR22R xenograft in nude mice)): sensitive to therapeutic doses
resistance of xenograft tumors to therapeutic doses of ZD1839 (successive passages in nude mice under continuous sub-therapeutic doses): increased with each generation
